# Measured values: ChEMBL document CHEMBL2163341, “Discovery of MK-7725, A Potent, Selective Bombesin Receptor Subtype-3 Agonist for the Treatment of Obesity” (ACS Med Chem Lett, 2012)
# Activity calls are given as the source filed them. The rule behind the calls is not given here.
# Experiments:
# Mus musculus [1] = assay: Increase of core body temperature in DIO mouse assessed as AUC (1 to 6 hrs) of body temperature changes at 3 mg/kg by fasted temperature PD assay; format: functional
# [2] = target: T1, Bombesin receptor subtype-3 (Mus musculus) (UniProt O54798); assay: Agonist activity at mouse BRS-3 expressed in HEK293AEQ cells assessed as bioluminescence for 10 mins by aequorin bioluminescence assay relative to dY-peptide; format: functional, cell-based
# T1 sequence (whole entry): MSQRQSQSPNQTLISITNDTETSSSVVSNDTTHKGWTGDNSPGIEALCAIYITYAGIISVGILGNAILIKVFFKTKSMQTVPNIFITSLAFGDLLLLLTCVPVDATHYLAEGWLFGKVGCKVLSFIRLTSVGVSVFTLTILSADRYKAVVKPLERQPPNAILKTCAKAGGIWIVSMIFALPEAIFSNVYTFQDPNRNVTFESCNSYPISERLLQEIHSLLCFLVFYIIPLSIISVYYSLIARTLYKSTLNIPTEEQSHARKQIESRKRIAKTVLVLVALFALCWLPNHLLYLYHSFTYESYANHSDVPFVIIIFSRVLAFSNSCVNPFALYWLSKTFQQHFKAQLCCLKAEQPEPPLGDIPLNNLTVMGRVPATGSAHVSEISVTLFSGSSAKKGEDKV
# [3] = target: T2, Bombesin receptor subtype-3 (Mus musculus, UniProt O54798); assay: Agonist activity at mouse BRS-3 expressed in HEK293AEQ cells assessed as bioluminescence for 10 mins by aequorin bioluminescence assay; format: functional, cell-based
# T2 sequence (O54798 whole entry): T1 sequence (whole entry)
# [4] = target: T3, Bombesin receptor subtype-3 (Homo sapiens) (UniProt P32247); assay: Agonist activity at human BRS-3 expressed in HEK293AEQ cells assessed as bioluminescence for 10 mins by aequorin bioluminescence assay relative to dY-peptide; format: functional, cell-based
# T3 sequence (whole entry): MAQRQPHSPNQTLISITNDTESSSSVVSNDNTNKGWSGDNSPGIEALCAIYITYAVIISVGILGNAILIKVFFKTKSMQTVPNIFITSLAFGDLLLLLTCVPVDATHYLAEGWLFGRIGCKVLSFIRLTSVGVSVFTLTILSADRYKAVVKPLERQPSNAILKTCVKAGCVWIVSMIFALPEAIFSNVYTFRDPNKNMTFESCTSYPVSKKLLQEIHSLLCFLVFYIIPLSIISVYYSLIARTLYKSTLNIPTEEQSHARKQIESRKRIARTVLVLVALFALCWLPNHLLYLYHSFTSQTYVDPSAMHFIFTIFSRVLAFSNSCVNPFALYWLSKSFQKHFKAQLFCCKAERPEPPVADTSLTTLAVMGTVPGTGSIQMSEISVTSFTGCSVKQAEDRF
# [5] = target: T4, Bombesin receptor subtype-3 (Homo sapiens, UniProt P32247); assay: Agonist activity at human BRS-3 expressed in HEK293AEQ cells assessed as bioluminescence for 10 mins by aequorin bioluminescence assay; format: functional, cell-based
# T4 sequence (P32247 whole entry): T3 sequence (whole entry)
# [6] = target: T4, Bombesin receptor subtype-3; assay: Displacement of [125I]-dY-peptide from human BRS-3 expressed in NFAT-CHO cells after 2 hrs by liquid scintillation counting; format: cell-based
# [7] = target: T5, Nuclear receptor subfamily 1 group I member 2 (Homo sapiens, UniProt O75469); assay: Activation of PXR at 10 uM
# T5 sequence (O75469 whole entry): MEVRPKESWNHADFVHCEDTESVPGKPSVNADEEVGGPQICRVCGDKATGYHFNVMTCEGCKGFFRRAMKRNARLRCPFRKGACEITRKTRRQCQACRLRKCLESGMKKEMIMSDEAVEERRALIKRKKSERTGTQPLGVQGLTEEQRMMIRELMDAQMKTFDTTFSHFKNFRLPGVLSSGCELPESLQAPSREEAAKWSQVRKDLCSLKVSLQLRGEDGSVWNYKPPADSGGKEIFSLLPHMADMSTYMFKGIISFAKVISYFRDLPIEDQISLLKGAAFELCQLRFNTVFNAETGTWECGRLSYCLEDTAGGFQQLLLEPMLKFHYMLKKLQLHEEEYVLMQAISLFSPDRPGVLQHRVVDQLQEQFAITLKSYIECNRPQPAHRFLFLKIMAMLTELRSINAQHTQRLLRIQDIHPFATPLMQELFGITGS
# [8] = target: T5, Nuclear receptor subfamily 1 group I member 2; assay: Activation of PXR
# [9] = Oral bioavailability in Sprague-Dawley rat at 1 mg/kg; format: ADME, organism-based; settings: in vivo
# [10] = Half life in Sprague-Dawley rat at 0.5 mg/kg, iv; format: ADME, organism-based; design: dose 0.5 mg/kg, route intravenous; settings: in vivo
# [11] = Plasma clearance in Sprague-Dawley rat at 0.5 mg/kg, iv; format: ADME, organism-based; design: dose 0.5 mg/kg, route intravenous
# Rattus norvegicus [12] = assay: Dose normalized AUC in Sprague-Dawley rat at 1 mg/kg, po; format: ADME, organism-based; design: dose 1 mg/kg, route oral; settings: in vivo
# Rattus norvegicus [13] = assay: Antiobesity activity in DIO Sprague-Dawley rat assessed as reduction of body weight at 3 mg/kg, po administered bid for 12 days; format: functional; design: scale not given: the % may be the effect or the level left
# Canis familiaris [14] = assay: Antiobesity activity in obese Beagle dog assessed as reduction of body weight at 5 to 15 mg/kg, po administered for 7 days relative to control; format: functional, Canis lupus familiaris; design: scale not given: the % may be the effect or the level left; settings: dose mg/kg 5-15
# Rattus norvegicus [15] = assay: Antiobesity activity in DIO Sprague-Dawley rat assessed as increase in metabolic rate at 15 to 50 mg/kg, po administered bid for 12 days; format: functional, organism-based
# Rattus norvegicus [16] = assay: Toxicity in DIO Sprague-Dawley rat assessed as tachyphylaxis at 15 to 50 mg/kg, po administered bid for 12 days; format: organism-based; design: dose 15-50 mg/kg, route oral; settings: in vivo, 288 h
# Mus musculus [17] = assay: Antiobesity activity in BRS-3 knock out DIO C57BL/6 mouse assessed as reduction of food intake at 100 mg/kg, po after 18 hrs; format: functional, organism-based; design: dose 100 mg/kg
# Rattus norvegicus [18] = assay: Antiobesity activity in DIO Sprague-Dawley rat assessed as reduction of body weight at 15 mg/kg, po administered bid for 12 days; format: functional; design: scale not given: the % may be the effect or the level left
# Rattus norvegicus [19] = assay: Antiobesity activity in DIO Sprague-Dawley rat assessed as reduction of body weight at 50 mg/kg, po administered bid for 12 days; format: functional; design: scale not given: the % may be the effect or the level left
# Mus musculus [20] = assay: Antiobesity activity in po dosed wild type DIO C57 mouse assessed as reduction of body weight; format: functional, organism-based
# Mus musculus [21] = assay: Antiobesity activity in po dosed wild type DIO C57 mouse assessed as reduction of food intake; format: functional, organism-based
# Rhesus monkey = assay: Dose normalized AUC in rhesus monkey at 1 mg/kg, po; format: ADME, organism-based, Macaca mulatta; design: dose 1 mg/kg, route oral; settings: in vivo
# [22] = Oral bioavailability in rhesus monkey at 1 mg/kg; format: ADME, organism-based, Macaca mulatta; settings: in vivo
# [23] = Plasma clearance in rhesus monkey at 0.5 mg/kg, iv; format: ADME, organism-based, Macaca mulatta; design: dose 0.5 mg/kg, route intravenous
# [24] = Half life in rhesus monkey at 0.5 mg/kg, iv; format: ADME, organism-based, Macaca mulatta; design: dose 0.5 mg/kg, route intravenous; settings: in vivo
# [25] = Half life in dog at 0.5 mg/kg, iv; format: ADME, organism-based, Canis lupus familiaris; design: dose 0.5 mg/kg, route intravenous; settings: in vivo
# Canis familiaris [26] = assay: Dose normalized AUC in dog at 1 mg/kg, po; format: ADME, organism-based, Canis lupus familiaris; design: dose 1 mg/kg, route oral; settings: in vivo
# [27] = Oral bioavailability in dog at 1 mg/kg; format: ADME, organism-based, Canis lupus familiaris; settings: in vivo
# [28] = Plasma clearance in dog at 0.5 mg/kg, iv; format: ADME, organism-based, Canis lupus familiaris; design: dose 0.5 mg/kg, route intravenous
SMILES,Activity (Mus musculus [1]) [degreeC.hr],Activity [2] [%],EC50 [3] [nM],Activity [4] [%],EC50 [5] [nM],IC50 [6] [nM],Activity [7] [%],EC50 [8] [nM],bioavailability [9] [%],half-life [10] [h],clearance [11] [mL/min/kg],AUC/dose (Rattus norvegicus [12]) [µM·kg·h/mg],other results
CC(C)(C)c1ccc(S(=O)(=O)N2Cc3ccc(C(F)(F)F)nc3Nc3cccc(-c4cccnc4)c32)cc1,-0.99,105,58,99,42,1.72,77,1800,–,–,–,–,–
CC(C)c1ccc(S(=O)(=O)N2Cc3ccc(C(F)(F)F)nc3Nc3cccc(-c4noc(C(C)(C)O)n4)c32)cc1,4.93,114,147,–,–,1.7,80,2400,8,1.6,49,–,–
CC(C)(C)c1ccc(S(=O)(=O)N2Cc3ccc(C(F)(F)F)nc3Nc3cccc(-c4noc(CO)n4)c32)cc1,2.6,114,93,102,56,0.7,78,3500,29,1.7,22,0.39,–
CC(C)(O)c1nc(-c2cccc3c2N(S(=O)(=O)c2ccc(OC(F)F)cc2)Cc2ccc(C(F)(F)F)nc2N3)no1,3.31,94,99,–,–,18,22,10000,–,–,–,–,–
CC(C)(C)c1ccc(S(=O)(=O)N2Cc3ccc(C(F)(F)F)nc3Nc3cccc(-c4noc(C(C)(C)O)n4)c32)cc1,2.6,117,83,106,52,0.9,13,> 10000,14,1.9,44,0.65,–
CCNC(C)Cc1cccc(C(F)(F)F)c1 (stereo unspecified) [FENFLURAMINE],–,–,–,–,–,–,–,–,–,–,–,–,Activity (Rattus norvegicus [13]): 6.2%
CC(C)(C)c1ccc(S(=O)(=O)N2Cc3ccc(C(F)(F)F)nc3Nc3cccc(-c4noc(=O)[nH]4)c32)cc1,-0.52,105,76,104,77,29,42,1900,–,–,–,–,–
Cn1cc(-c2cccc3c2N(S(=O)(=O)c2ccc(C(C)(C)C)cc2)Cc2ccc(C(F)(F)F)nc2N3)cn1,0.2,110,102,95,63,0.76,50,1100,–,–,–,–,–
CC(C)(O)c1nc(-c2cccc3c2N(S(=O)(=O)c2ccc(C(F)(F)F)cc2)Cc2ccc(C(F)(F)F)nc2N3)no1,5.22,97,95,–,–,8.3,6,> 30000,100,2.5,33,1.05,–
C[C@H](O)c1nc(-c2cccc3c2N(S(=O)(=O)c2ccc(C(C)(C)C)cc2)Cc2ccc(C(F)(F)F)nc2N3)no1,3.7,109,89,102,52,1.2,9,> 10000,14,2.1,86,0.34,–
CC(C)(C)c1ccc(S(=O)(=O)N2Cc3ccc(C(F)(F)F)nc3Nc3cccc(C4CCNCC4)c32)cc1,-0.74,129,115,101,114,1.4,37,6600,–,–,–,–,–
C[C@@H](O)c1nc(-c2cccc3c2N(S(=O)(=O)c2ccc(C(C)(C)C)cc2)Cc2ccc(C(F)(F)F)nc2N3)no1,0.4,112,134,107,69,1.9,18,> 25000,11,1.8,33,0.9,–
CC(C)(C)c1ccc(S(=O)(=O)N2Cc3ccc(C(F)(F)F)nc3Nc3cccc(-c4ncon4)c32)cc1,2.1,116,57,102,40,1.1,53,11800,–,–,–,–,–
CC(C)(O)c1nc(-c2cccc3c2N(S(=O)(=O)c2ccc(OC(F)(F)F)cc2)Cc2ccc(C(F)(F)F)nc2N3)no1,5.6,106,–,–,–,–,17,> 30000,–,–,–,1.6,Activity (Canis familiaris [14]): 4%; Activity (Rattus norvegicus [15]): Active; Activity (Rattus norvegicus [16]): Non-toxic; Activity (Mus musculus [17]): inactive; Activity (Rattus norvegicus [18]): 4%; Activity (Rattus norvegicus [19]): 3.2%; Activity (Mus musculus [20]): Dose-dependent effect; Activity (Mus musculus [21]): Dose-dependent effect; AUC/dose (Rhesus monkey): 12 µM·kg·h/mg; bioavailability [22]: 58%; clearance [23]: 1.3 mL/min/kg; half-life [24]: 33 h; half-life [25]: 18 h; AUC/dose (Canis familiaris [26]): 10 µM·kg·h/mg; bioavailability [27]: 100%; clearance [28]: 2.9 mL/min/kg
Cc1ccc2c(c1C)N(S(=O)(=O)c1ccc(C(C)(C)C)cc1)Cc1ccc(C(F)(F)F)nc1N2,–,–,–,–,–,–,42,–,–,–,–,–,–
